# In publication PMC6199744, “Development of Chemical Proteomics for the Folateome and Analysis of the Kinetoplastid Folateome” (ACS Infectious Diseases, 2018):
# Assays:
# DHFR-TS = DHFR-TS (Trypanosoma brucei brucei, UniProt Q27783); assay: Individual bead pull down with competing free ligand; settings: competing free ligand 100 μM; bead = immobilized compound of the row; T. brucei lysate; read-out: % Inhibition of protein binding to bead, DHFR-TS, T. brucei
# Excerpt: (§1) Antifolate compounds were immobilized onto NHS-activated sepharose beads/reverse sepharose beads through amide coupling via either an amino or carboxyl group (see Figure 3). The reaction was monitored by observing the disappearance of test compound by LCMS, after which the unreacted coupling sites were capped with NHS-acetate or aminoethanol.
# (§2) Folate metabolizing enzymes are not highly abundant proteins,[19],[20] potentially making their identification by MS difficult. Beads will not only pull down the low abundant high affinity binders but also attract highly abundant, low affinity binders or so-called nonspecific binders. Sometimes, the nonspecific high abundant proteins can mask true binders. The target identification approach used in this study overcomes this issue by performing competition studies. Various concentrations of the free unmodified inhibitor (test compound) were preincubated with the lysate, prior to addition of the beads derivatized with immobilized compounds. Following washing of the bound proteins from the beads and tryptic digest, the peptides were labeled using the TMTs and then pooled. Differences in peptide abundance were analyzed by fragmentation of the isotope-coded isobaric tags in the MS/MS spectra (Figure 5).[9],[11],[12],[21] While the competition experiments with test compound confirm specific binding, it is also possible that some proteins will have a stronger binding interaction with the derivatized beads than the competing test compound, due to subtle differences in the interactions between the immobilized compound and the test compound with the target protein.
# PTR-1 = PTR-1 (Trypanosoma brucei brucei, UniProt O76290); assay: as above; settings: competing free ligand 100 μM; bead = immobilized compound of the row; T. brucei lysate; read-out: % Inhibition of protein binding to bead, PTR-1, T. brucei
# Excerpt: as §1, §2
# [1] = molecular target: PTERIDINE REDUCTASE (TB927.8.2210) (Trypanosoma brucei brucei, UniProt O76290); assay: Multitargeted bead mixture competition; format: binding, T. brucei; settings: T. brucei lysate
# [2] = molecular target: DIHYDROFOLATE REDUCTASE-T[…] (TB427.07.5480) (Trypanosoma brucei brucei, UniProt Q27783); assay: Multitargeted bead mixture competition; format: binding; settings: T. brucei lysate
# [3] = test system: HYPOTHETICAL PROTEIN, CONSERVED (TB427.05.3680); assay: Multitargeted bead mixture competition; format: binding; settings: free ligand 100 μM, T. brucei lysate
# TB427.04.1870 = assay: Multitargeted bead mixture competition; format: binding; settings: free ligand 100 μM, T. brucei lysate
# [4] = test system: CHOLINE KINASE (TB427TMP.18.0017); assay: Multitargeted bead mixture competition; format: binding, T. brucei; settings: multitargeted bead mixture; free ligand 100 μM; T. brucei lysate; TB427TMP.18.0017 CHOLINE KINASE
# TB11.03.0290 = assay: Multitargeted bead mixture competition; format: binding, T. brucei; settings: multitargeted bead mixture; free ligand 100 μM; T. brucei lysate; TB11.03.0290
# [5] = molecular target: GLYCERALDEHYDE 3-PHOSPHATE DEHYDROGENASE, GLYCOSOM (TB427.06.4300) (Trypanosoma brucei brucei, UniProt P22512); assay: Multitargeted bead mixture competition; format: binding, T. brucei
# [6] = test system: PHOSPHATIDYLINOSITOL-4-PHOSPHATE 5-KINASE, PUTATIV (TB427.10.3890); assay: Multitargeted bead mixture competition; format: binding; settings: free ligand 100 μM, T. brucei lysate
# TB927.8.6460 = assay: Multitargeted bead mixture competition; format: binding, T. brucei; settings: multitargeted bead mixture; free ligand 100 μM; T. brucei lysate; TB927.8.6460
# TB09.211.1690 = assay: Multitargeted bead mixture competition; format: binding; settings: free ligand 100 μM, T. brucei lysate
# TB927.7.1340 = assay: Multitargeted bead mixture competition; format: binding; settings: free ligand 100 μM, T. brucei lysate
# TB927.8.6760 = assay: Multitargeted bead mixture competition; format: binding; settings: free ligand 100 μM, T. brucei lysate
# [7] = test system: HYPOTHETICAL PROTEIN, CONSERVED (TB427.03.2670); assay: Multitargeted bead mixture competition; format: binding; settings: free ligand 100 μM, T. brucei lysate
# [8] = test system: PEPTIDYL-PROLYL CIS-TRANS ISOMERASE (CYCLOPHILIN- (TB427TMP.211.1350)); assay: Multitargeted bead mixture competition; format: binding; settings: free ligand 100 μM, T. brucei lysate
# [9] = test system: BRANCHED-CHAIN AMINO ACID AMINOTRANSFERASE, PUTATI (TB427.02.4590); assay: Multitargeted bead mixture competition; format: binding; settings: free ligand 100 μM, T. brucei lysate
# [10] = test system: NGG1 INTERACTING FACTOR 3-LIKE (Tb427tmp.02.5000); format: binding; settings: multitargeted bead mixture; free ligand 100 μM; T. brucei lysate; Tb427tmp.02.5000
# [11] = test system: ACETYLTRANSFERASE, PUTATIVE (Tb427.08.3310); assay: Multitargeted bead mixture competition; format: binding; settings: free ligand 100 μM, T. brucei lysate
# [12] = test system: HYPOTHETICAL PROTEIN, CONSERVED (Tb427.10.6100); assay: Multitargeted bead mixture competition; format: binding; settings: free ligand 100 μM, T. brucei lysate
# [13] = test system: SUCCINYL-COA SYNTHETASE ALPHA SUBUNIT, PUTATIVE (Tb427.03.2230); assay: Multitargeted bead mixture competition; format: binding; settings: free ligand 100 μM, T. brucei lysate
# [14] = test system: IRON/ASCORBATE OXIDOREDUCTASE FAMILY PROTEIN, PUTA (Tb427.02.6180); assay: Multitargeted bead mixture competition; format: binding, T. brucei; settings: multitargeted bead mixture; free ligand 100 μM; T. brucei lysate; Tb427.02.6180
# [15] = test system: PROTEIN KINASE, PUTATIVE (Tb427.03.1570); assay: Multitargeted bead mixture competition; format: binding; settings: free ligand 100 μM, T. brucei lysate
# methylene-THF-reductase = methylene-THF-reductase (Homo sapiens, UniProt P42898); assay: Multitargeted bead mixture competition, HeLa cell extract; format: binding; settings: bead mixture; HeLa cell extract
# [16] = test system: LMJF.26.2560 (hypothetical conserved ATP binding protein); assay: Individual MTX bead pull down; settings: L. major
# [17] = test system: LMJF.30.2970 (glyceraldehyde-3-phosphate dehydrogenase, GAPDH); assay: Individual MTX bead pull down; format: binding; settings: L. major
# Sequence of PTERIDINE REDUCTASE (TB927.8.2210) (O76290 entry or part of it): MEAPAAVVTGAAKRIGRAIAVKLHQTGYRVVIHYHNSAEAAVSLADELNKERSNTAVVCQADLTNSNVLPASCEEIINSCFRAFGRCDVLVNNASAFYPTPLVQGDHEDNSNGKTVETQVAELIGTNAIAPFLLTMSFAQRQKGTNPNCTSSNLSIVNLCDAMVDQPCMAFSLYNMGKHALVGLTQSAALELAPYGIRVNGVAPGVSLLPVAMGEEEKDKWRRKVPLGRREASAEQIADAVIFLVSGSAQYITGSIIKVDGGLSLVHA
# Sequence of UniProt P22512 (P22512 whole entry): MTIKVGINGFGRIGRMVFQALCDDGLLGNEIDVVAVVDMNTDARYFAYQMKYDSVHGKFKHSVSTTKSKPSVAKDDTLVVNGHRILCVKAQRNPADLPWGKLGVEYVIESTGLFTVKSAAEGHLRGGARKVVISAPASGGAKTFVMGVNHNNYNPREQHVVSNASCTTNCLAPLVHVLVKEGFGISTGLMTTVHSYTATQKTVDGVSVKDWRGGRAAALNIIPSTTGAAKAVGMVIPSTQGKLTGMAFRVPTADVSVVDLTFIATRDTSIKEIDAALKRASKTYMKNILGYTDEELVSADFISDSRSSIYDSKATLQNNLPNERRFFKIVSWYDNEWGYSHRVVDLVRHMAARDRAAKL
# Sequence of UniProt Q27783 (Q27783 whole entry): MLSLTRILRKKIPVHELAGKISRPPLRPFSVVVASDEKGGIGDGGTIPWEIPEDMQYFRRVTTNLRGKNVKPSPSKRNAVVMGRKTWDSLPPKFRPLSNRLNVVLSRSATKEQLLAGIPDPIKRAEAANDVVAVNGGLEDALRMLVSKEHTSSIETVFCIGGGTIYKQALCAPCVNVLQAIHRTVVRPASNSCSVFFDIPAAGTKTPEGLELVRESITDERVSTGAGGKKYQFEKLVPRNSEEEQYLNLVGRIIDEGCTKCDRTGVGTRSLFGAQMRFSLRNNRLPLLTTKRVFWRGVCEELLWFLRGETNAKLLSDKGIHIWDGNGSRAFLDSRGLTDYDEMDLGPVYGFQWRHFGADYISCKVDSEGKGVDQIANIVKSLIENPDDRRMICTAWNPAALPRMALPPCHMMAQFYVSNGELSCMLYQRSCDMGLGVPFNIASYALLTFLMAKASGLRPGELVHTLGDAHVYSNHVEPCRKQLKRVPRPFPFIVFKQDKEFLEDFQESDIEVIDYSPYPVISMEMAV
# Sequence of methylene-THF-reductase (P42898 whole entry): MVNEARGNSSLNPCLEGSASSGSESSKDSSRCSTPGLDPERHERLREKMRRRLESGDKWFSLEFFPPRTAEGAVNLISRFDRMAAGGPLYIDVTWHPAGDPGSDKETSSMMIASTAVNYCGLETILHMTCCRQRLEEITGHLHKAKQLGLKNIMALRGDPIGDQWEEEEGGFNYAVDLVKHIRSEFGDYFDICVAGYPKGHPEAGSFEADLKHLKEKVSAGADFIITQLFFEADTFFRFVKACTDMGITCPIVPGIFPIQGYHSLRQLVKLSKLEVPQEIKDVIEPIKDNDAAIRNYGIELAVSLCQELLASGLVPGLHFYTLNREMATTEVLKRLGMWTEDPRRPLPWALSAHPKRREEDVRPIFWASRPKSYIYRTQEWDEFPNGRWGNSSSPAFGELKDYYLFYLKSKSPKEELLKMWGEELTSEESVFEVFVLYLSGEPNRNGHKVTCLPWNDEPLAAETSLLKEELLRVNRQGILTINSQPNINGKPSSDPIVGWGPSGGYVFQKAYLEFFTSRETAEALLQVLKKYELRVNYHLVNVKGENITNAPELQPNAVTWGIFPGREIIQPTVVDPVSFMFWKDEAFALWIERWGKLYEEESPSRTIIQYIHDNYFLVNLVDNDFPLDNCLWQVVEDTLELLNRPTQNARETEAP
# Sequence of PTR-1 (O76290 entry or part of it): as the sequence (O76290 entry or part of it) above
# Sequence of DHFR-TS (Q27783 whole entry): as the sequence (Q27783 whole entry) above
structure (smiles),measurement,setting,value
"CN(Cc1cnc2nc(N)nc(N)c2n1)c1ccc(C(=O)N[C@@H](CCC(=O)O)C(=O)O)cc1 [MTX, methotrexate]",inhibition at 100 µM,DHFR-TS,95%
same,inhibition at 100 µM,PTR-1,90%
same,competition for PTR1 (Figure 6),"[1]; bead mixture, compound 100 μM",competed for PTR1
same,percentage of competition from bead binding,"[1]; multitargeted bead mixture, free ligand 100 μM, TB927.8.2210 PTERIDINE REDUCTASE",93%
same,competition for DHFR-TS (Figure 6),"[2]; bead mixture, compound 100 μM",compete for DHFR-TS
same,percentage of competition from bead binding,"[2]; multitargeted bead mixture, free ligand 100 μM, TB427.07.5480 DHFR-TS",85%
same,percentage of competition from bead binding,[3],69%
same,percentage of competition from bead binding,TB427.04.1870,58%
same,percentage of competition from bead binding,[4],57%
same,percentage of competition from bead binding,TB11.03.0290,57%
same,binding to GAPDH (Tb427.06.4300),"[5]; bead mixture, T. brucei lysates",bound
same,percentage of competition from bead binding,"[5]; multitargeted bead mixture, free ligand 100 μM, T. brucei lysate, TB427.06.4300 GAPDH",56%
same,percentage of competition from bead binding,[6],56%
same,percentage of competition from bead binding,TB927.8.6460,54%
same,percentage of competition from bead binding,TB09.211.1690,51%
same,percentage of competition from bead binding,TB927.7.1340,51%
same,percentage of competition from bead binding,TB927.8.6760,50%
same,percentage of competition from bead binding,[7],50%
same,percentage of competition from bead binding,[8],50%
same,percentage of competition from bead binding,[9],34%
same,percentage of competition from bead binding,[10],31%
same,percentage of competition from bead binding,[11],31%
same,percentage of competition from bead binding,[12],23%
same,percentage of competition from bead binding,[13],18%
same,percentage of competition from bead binding,[14],17%
same,percentage of competition from bead binding,[15],9%
same,"inhibition, methylene-THF-reductase",methylene-THF-reductase,77%
same,binding of LMJF.26.2560 to MTX,[16],bind to MTX
same,binding of LMJF.30.2970 (GAPDH) to MTX,[17],bind to MTX
